From article PMC9147192, “Small Molecule Arranged Thermal Proximity Coaggregation (smarTPCA)—A Novel Approach to Characterize Protein–Protein Interactions in Living Cells by Similar Isothermal Dose–Responses” (International Journal of Molecular Sciences, 2022)
Values joined by “and” are separate entries in the source; they are usually repeats but may differ in a detail not shown here. Equal values may be shown once.

What was measured:
MAPK14 [1] = molecular target: T1, MAPK14 (Homo sapiens, UniProt Q16539); experiment: CETSA in living HL-60 cells, immunoblot; format: cell-based
Description: First, we conducted CETSA experiments according to Jafari et al.. […] Subsequent SDS-PAGE and immunoblotting were performed according to optimized conditions allowing for parallel detection of MAPK14, MAPKAPK2, MAPKAPK3, and GSK-3α (Supplementary Figure S1).
HL-60 cells (ATCC No. CCL-240) were expanded to about […] in 80 mL cell culture medium (RPMI-1640 supplemented with 10% (v/v) FBS, 1% (v/v) penicillin-streptomycin and 1% (v/v) L-glutamine solution) and divided into four aliquots (20 mL each, 25 million cells per flask). […] The same volume of DMSO was added to the remaining aliquot serving as the vehicle (DMSO) control. After incubation (1 h, 37 °C, 5% CO2, in cell culture CO2 incubator), the cell suspensions were transferred into 50 mL conical tubes, cell number and viability were determined, and after centrifugation (300 relative centrifugal force (rcf), 3 min, room temperature (r.t.)), the supernatants were completely removed and discarded. The cells were washed using 20 mL Dulbecco’s phosphate-buffered saline (PBS), respectively, by resuspension and centrifugation (300 rcf, 3 min, r.t.). After the complete removal of the supernatants, the cells were transferred into pre-weighed 2 mL Eppendorf tubes using 0.5 mL PBS (r.t.), respectively, for resuspending. After centrifugation (300 rcf, 3 min, r.t.) and removing as much as possible of the supernatants, the cell wet weights were determined.
The suspensions were shortly centrifuged (1 s or less) using a benchtop centrifuge that was equipped with an inset for PCR tubes to release trapped air and to achieve an even liquid level without pelleting the cells. The 100 µL cell suspensions were then temperature treated by a 7 min pre-incubation at r.t., a 3 min incubation at the following different temperatures in the PCR cycler (DNA Engine Tetrad 2, lid temperature 70 °C, gradient block 1: 36–55 °C, gradient block 2: 48–67 °C), and a 3 min post-incubation at r.t. in a metal heating block for uniform heat dissipation.
The cells were lysed by four freeze/thaw cycles consisting of thawing the samples (in a heat block set to 25 °C and shaking at 1250 rpm) accompanied by mixing them several times by inversion and then shock freezing them again in liquid nitrogen. The resulting lysates were kept cold (on ice or 4 °C) from then on. After centrifugation (20,000 rcf, 30 min, 4 °C) to pellet the cell debris together with precipitated and aggregated proteins, the supernatants were recovered and, after determining the total protein concentration (Pierce 660 nm Protein Assay, BSA as standard), the resulting cell extracts containing the fraction of soluble, non-denatured proteins were shock frozen in liquid nitrogen and stored at −80 °C.
For each sample set comprising either ten temperature range samples or ten compound concentration range samples, the same volume of the cell extracts containing the fraction of soluble, non-denatured proteins was used for further analysis. This volume was determined using the two lowest temperature samples (36.5 and 41.2 °C) per temperature range sample set so that they contained an average of 5 µg total protein (e.g., 2.78 µL for all temperature range samples of a sample set whose two lowest temperature samples contain an average of 1.8 mg/mL protein). For the compound concentration range experiments, all samples of a set were used for averaging.

MAPK14 [2] = test system: MAPK14; parameters: method as in Seashore-Ludlow et al., Biochemistry 2018; details: MAPK14 only, extrapolated to 50°C and extracted from figure 3b; ref Seashore-Ludlow et al., Biochemistry 2018; cited from earlier work
MAPK14 [3] = molecular target: T1, MAPK14; experiment: TPP-CCR in living HL-60 cells; details: […] °C, TMT-MS
STX4 = STX4 (Homo sapiens, UniProt Q12846); experiment: TPP-CCR in living HL-60 cells
MARS = MARS (Homo sapiens, UniProt P56192); experiment: TPP-CCR in living HL-60 cells
MAPK3 = molecular target: T2, MAPK3 (Homo sapiens, UniProt P27361); experiment: TPP-CCR in living HL-60 cells; format: cell-based
T2 construct: endogenous in cells; host or cells: HL-60 (ATCC CCL-240)
From the text: Therefore, we performed TPP with compound concentration range (TPP-CCR) experiments according to published procedures. In brief, after preparing tryptic peptides from the non-denatured protein fractions (used for immunoblotting in the previous sections) applying the SP3 method, the peptides were labeled using TMT10plex, coding for inhibitor concentration, and the samples belonging to a TMT set were combined, offline high-pH fractionated, and analyzed by MS.
HL-60 cells were expanded as described above for CETSA and TPP-TR to 1.25 million cells per milliliter. […] A number of 2.5 million cells in 2 mL of medium were added to each tube and incubated (1 h, 37 °C). […]
For each sample set comprising ten compound concentration range samples, a same volume of the cell extracts containing the fraction of soluble, non-denatured proteins, corresponding to an average of 5 µg total protein, was used for further analysis. The calculated volume was respectively transferred into PCR tubes of a tube strip and supplemented with SDS sample buffer without DTT and bromophenol blue (final concentrations: 7.5% glycerol, 3% SDS, 37.5 mM Tris/HCl pH 7.0) and ddH2O to a final volume of 10 µL, respectively. […]

MYLK = test system: MYLK; parameters: method as in PMID 22037378; details: cited from earlier work
MAPK14 [4] = details: cited from earlier work
[5] = living HL-60 cells, […] °C, TMT-MS

T1 sequence (Q16539 whole entry): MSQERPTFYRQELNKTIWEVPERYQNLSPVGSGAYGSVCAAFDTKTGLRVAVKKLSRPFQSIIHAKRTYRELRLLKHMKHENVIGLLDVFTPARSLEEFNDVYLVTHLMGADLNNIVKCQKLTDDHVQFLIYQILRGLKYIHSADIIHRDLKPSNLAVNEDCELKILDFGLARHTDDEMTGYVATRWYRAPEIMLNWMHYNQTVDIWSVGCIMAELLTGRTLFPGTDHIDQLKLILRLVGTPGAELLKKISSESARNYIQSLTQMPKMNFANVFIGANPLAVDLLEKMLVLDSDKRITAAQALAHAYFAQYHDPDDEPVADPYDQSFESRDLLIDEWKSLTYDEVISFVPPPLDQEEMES
Sequence of MARS (P56192 whole entry): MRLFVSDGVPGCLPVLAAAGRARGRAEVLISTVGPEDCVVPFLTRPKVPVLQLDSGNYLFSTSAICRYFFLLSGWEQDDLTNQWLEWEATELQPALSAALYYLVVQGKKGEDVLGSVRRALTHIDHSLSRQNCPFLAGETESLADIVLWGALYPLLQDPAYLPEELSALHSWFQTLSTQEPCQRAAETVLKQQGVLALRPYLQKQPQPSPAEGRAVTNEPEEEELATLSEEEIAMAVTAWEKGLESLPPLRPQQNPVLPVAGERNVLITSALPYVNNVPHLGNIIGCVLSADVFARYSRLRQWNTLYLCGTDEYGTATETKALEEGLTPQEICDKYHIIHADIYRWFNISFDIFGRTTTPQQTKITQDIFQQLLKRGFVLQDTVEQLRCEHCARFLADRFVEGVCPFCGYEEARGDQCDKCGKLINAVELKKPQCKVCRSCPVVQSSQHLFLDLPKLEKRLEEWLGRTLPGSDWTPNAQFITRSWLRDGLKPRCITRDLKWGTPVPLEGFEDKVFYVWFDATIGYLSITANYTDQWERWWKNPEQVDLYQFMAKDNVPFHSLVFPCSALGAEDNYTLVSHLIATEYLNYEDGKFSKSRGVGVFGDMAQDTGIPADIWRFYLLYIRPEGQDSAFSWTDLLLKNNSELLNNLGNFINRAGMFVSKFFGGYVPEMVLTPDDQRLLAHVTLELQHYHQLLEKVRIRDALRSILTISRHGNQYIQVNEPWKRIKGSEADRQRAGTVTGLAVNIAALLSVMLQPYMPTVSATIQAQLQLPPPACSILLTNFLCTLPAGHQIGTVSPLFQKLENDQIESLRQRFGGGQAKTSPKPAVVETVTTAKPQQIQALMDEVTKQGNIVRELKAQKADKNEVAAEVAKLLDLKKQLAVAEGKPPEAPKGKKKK
T2 sequence (P27361 whole entry): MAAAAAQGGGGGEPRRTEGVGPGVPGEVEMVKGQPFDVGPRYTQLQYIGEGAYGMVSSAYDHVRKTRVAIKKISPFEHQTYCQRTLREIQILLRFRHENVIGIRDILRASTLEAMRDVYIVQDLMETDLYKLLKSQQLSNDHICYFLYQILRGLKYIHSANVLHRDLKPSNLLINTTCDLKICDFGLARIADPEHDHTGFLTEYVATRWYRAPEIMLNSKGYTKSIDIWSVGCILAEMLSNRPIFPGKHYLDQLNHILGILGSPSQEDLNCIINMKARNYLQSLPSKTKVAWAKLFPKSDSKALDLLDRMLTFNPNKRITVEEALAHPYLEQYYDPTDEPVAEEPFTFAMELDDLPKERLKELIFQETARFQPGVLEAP
Sequence of STX4 (Q12846 whole entry): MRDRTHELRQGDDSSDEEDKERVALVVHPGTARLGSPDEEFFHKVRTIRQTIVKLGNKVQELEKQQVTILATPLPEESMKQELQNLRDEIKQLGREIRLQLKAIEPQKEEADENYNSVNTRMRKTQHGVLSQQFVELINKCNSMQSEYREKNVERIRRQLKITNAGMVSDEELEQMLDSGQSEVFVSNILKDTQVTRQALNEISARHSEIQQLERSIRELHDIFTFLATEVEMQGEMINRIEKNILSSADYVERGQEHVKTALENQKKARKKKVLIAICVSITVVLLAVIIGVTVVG

Cn1c(NC[C@@H](N)Cc2ccccc2)nc(-c2ccncc2)c(-c2ccc3ccccc3c2)c1=O [AMG-548]
ΔTm at 20 µM (MAPK14 [1]; HL-60, living HL-60 cells, 20 µM inhibitor, read-out: ΔTm to DMSO (MAPK14)): 14.8 °C
Tm (MAPK14 [1]; MAPK14, living cells): 60.58 °C
ΔTm to DMSO (MAPK14 [1]; MAPK14, living cells): 14.76 °C
Tm (MAPK14) (MAPK14 [1]; living HL-60 cells, 20 µM inhibitor): 60.6 ± 0.5 °C and 60.58 °C
ΔTm to DMSO (MAPK14) (MAPK14 [1]; living HL-60 cells, 20 µM inhibitor, 20 µM): 14.76 °C
pEC50, Cell extract (MAPK14 [2]): 8.14
Hill slope (MAPK14) (MAPK14 [3]): 0.57
EC50 (STX4): 132 nM
Hill slope (STX4) (STX4; [5]): 0.27
EC50 (MARS): 209 nM
Hill slope (MARS) (MARS; [5]): 0.40

Cc1cnc(Nc2ccc(F)cc2Cl)nc1-c1c[nH]c(C(=O)N[C@H](CO)c2cccc(Cl)c2)c1 [ERK 11e]
Hill slope (MAPK3; TPP-CCR, living cells, MAPK3): 0.59
Hill slope (MAPK3) (MAPK3; [5]): 0.59

C[S+]([O-])c1ccc(-c2nc(-c3ccncc3)c(-c3ccc(F)cc3)[nH]2)cc1 (stereo not drawn) [SB203580]
activity towards MYLK (MYLK): inactivity
activity against MAPK14 (MAPK14 [4]): high activity
